Measurements: ChEMBL document CHEMBL5226341, “Discovery of a Potent FLT3 Inhibitor (LT-850-166) with the Capacity of Overcoming a Variety of FLT3 Mutations” (J Med Chem, 2021)
Active and inactive are the calls of the source. No cut-off for these calls is given here.

Key:
[1] = test system: Receptor-type tyrosine-protein kinase FLT3 (Homo sapiens), P36888 [UNDEFINED MUTATION]; type: cell-based; conditions: BaF3, dose 0.1-100 nM, time 4.0 hrs
[2] = test system: MV4-11; assay: Antitumor activity against human MV4-11 cells xenografted in BALB/c mouse assessed as tumor growth inhibition at 15 mg/kg, iv BID for 21 days by vernier caliper analysis; type: functional; conditions: MV4-11, 504 h, time 21 day, read-out: TGI
[3] = test system: MV4-11; assay: Antiproliferative activity against human MV4-11 cells assessed as inhibition of cell growth incubated for 72 hrs by CellTiterGlo luminescent assay; type: functional, cell-based; conditions: MV4-11, 72 h
[4] = test system: MV4-11; assay: Induction of apoptosis in human MV4-11 cells assessed as necrotic cells at 10 nM incubated for 24 hrs by AnnexinV-FITC/PI staining based flow cytometry (reference value: 0.45%); type: functional
[5] = Toxicity in BALB/c mouse xenografted with human MV4-11 cells assessed as morphological changes in kidney at 15 mg/kg, iv for 21 days by H and E staining based analysis; type: organism-based; conditions: in vivo, 504 h, time 21 day
[6] = test system: Receptor-type tyrosine-protein kinase FLT3 (Homo sapiens), P36888 [UNDEFINED MUTATION]; assay: Inhibition of FLT3-ITD-F691L mutant (unknown origin) transformed in mouse BaF3 cells assessed as inhibition of STAT5 phosphorylation at Tyr694 residue incubated for 4 hrs by western blot analysis; type: cell-based; conditions: dose 0.1-100 nM
[7] = test system: THP-1; assay: Antiproliferative activity against human THP-1 cells assessed as reduction in cell viability measured after 72 hrs by CellTiterGlo luminescent assay; type: functional, cell-based; conditions: THP-1, 72 h
[8] = test system: MV4-11; assay: Induction of apoptosis in human MV4-11 cells assessed as viable cells at 50 nM incubated for 24 hrs by AnnexinV-FITC/PI staining based flow cytometry (reference value: 92.3%); type: functional; conditions: read-out: Activity
[9] = test system: HCD-57; assay: Induction of cell cycle arrest in mouse HCD-57 cells harboring FLT3-D835Y mutant at 100 nM incubated for 24 hrs by PI staining based flow cytometry; type: functional
[10] = test system: MV4-11; assay: Induction of apoptosis in human MV4-11 cells assessed as viable cells at 100 nM incubated for 24 hrs by AnnexinV-FITC/PI staining based flow cytometry (reference value: 92.3%); type: functional; conditions: read-out: Activity
[11] = test system: MV4-11; assay: Induction of apoptosis in human MV4-11 cells assessed as late apoptotic cells at 100 nM incubated for 24 hrs by AnnexinV-FITC/PI staining based flow cytometry (reference value: 4.2%); type: functional
[12] = test system: Receptor-type tyrosine-protein kinase FLT3 (Homo sapiens), P36888 [UNDEFINED MUTATION]; assay: Inhibition of FLT3-ITD-F691L mutant (unknown origin) transformed in mouse BaF3 cells assessed as inhibition of FLT3 phosphorylation at Tyr589/591 residue incubated for 4 hrs by western blot analysis; type: cell-based; conditions: dose 0.1-100 nM
[13] = Toxicity in ICR mouse assessed as effect on animal's survival rate at 100 mg/kg, iv administered as single dose and measured for 14 days; type: organism-based; conditions: in vivo, 336 h, time 14 day
[14] = test system: HCD-57; assay: Antiproliferative activity against mouse HCD-57 cells harboring FLT3-D835Y mutant assessed as reduction in cell viability measured after 72 hrs by CellTiterGlo luminescent assay; type: functional, cell-based
[15] = test system: MV4-11; assay: Induction of apoptosis in human MV4-11 cells assessed as necrotic cells at 100 nM incubated for 24 hrs by AnnexinV-FITC/PI staining based flow cytometry (reference value: 0.45%); type: functional
[16] = biological target: Receptor-type tyrosine-protein kinase FLT3 (Homo sapiens) (UniProt P36888); assay: Inhibition of FLT3 in human MV4-11 cells assessed as inhibition of ERK phosphorylation at Thr202/Tyr204 residue at 10 nM incubated for 4 hrs by western blot analysis; type: cell-based
Chain of Receptor-type tyrosine-protein kinase FLT3 (Homo sapiens) (P36888 whole entry): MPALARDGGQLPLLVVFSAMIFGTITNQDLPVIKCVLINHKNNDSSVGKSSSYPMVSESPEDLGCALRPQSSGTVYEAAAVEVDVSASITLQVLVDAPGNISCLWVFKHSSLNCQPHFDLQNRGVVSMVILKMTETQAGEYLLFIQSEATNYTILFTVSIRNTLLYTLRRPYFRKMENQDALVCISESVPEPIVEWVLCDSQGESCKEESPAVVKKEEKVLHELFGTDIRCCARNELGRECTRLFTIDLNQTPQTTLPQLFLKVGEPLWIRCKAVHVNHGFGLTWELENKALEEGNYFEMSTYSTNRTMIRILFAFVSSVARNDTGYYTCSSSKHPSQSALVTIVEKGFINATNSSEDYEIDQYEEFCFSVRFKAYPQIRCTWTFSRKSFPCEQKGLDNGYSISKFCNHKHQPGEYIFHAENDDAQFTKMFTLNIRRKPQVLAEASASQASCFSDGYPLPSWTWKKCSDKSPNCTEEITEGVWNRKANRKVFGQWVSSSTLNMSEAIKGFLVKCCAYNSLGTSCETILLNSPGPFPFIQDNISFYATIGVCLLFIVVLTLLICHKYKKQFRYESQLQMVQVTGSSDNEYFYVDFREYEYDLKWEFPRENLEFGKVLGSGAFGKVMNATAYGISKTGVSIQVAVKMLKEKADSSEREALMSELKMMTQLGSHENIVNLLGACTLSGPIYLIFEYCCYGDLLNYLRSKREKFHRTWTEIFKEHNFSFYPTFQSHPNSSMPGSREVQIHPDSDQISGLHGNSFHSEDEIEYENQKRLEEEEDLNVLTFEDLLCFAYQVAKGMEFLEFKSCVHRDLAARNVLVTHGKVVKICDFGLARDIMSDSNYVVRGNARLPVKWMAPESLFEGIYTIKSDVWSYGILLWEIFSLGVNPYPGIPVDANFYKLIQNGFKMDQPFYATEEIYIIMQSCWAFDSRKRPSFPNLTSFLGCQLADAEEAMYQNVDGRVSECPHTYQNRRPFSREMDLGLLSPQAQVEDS

[17] = test system: HCD-57; assay: Induction of apoptosis in mouse HCD-57 cells harboring FLT3-D835Y mutant at 100 nM incubated for 24 hrs by AnnexinV-FITC/PI staining based flow cytometry; type: functional, cell-based
[18] = test system: MV4-11; assay: Induction of apoptosis in human MV4-11 cells assessed as late apoptotic cells at 50 nM incubated for 24 hrs by AnnexinV-FITC/PI staining based flow cytometry (reference value: 4.2%); type: functional
[19] = test system: HCT-116; assay: Antiproliferative activity against human HCT-116 cells assessed as reduction in cell viability measured after 72 hrs by CellTiterGlo luminescent assay; type: functional, cell-based; conditions: HCT-116, 72 h
[20] = test system: MV4-11; assay: Induction of apoptosis in human MV4-11 cells assessed as viable cells at 10 nM incubated for 24 hrs by AnnexinV-FITC/PI staining based flow cytometry (reference value: 92.3%); type: functional; conditions: read-out: Activity
[21] = test system: MV4-11; assay: Induction of apoptosis in human MV4-11 cells assessed as late apoptotic cells at 10 nM incubated for 24 hrs by AnnexinV-FITC/PI staining based flow cytometry (reference value: 4.2%); type: functional
[22] = test system: BaF3; assay: Antiproliferative activity against mouse BaF3 cells harboring FLT3-ITD-Y842H mutant assessed as reduction in cell viability measured after 72 hrs by CellTiterGlo luminescent assay; type: functional, cell-based; conditions: BaF3, 72 h
[23] = test system: MV4-11; assay: Induction of apoptosis in human MV4-11 cells assessed as necrotic cells at 50 nM incubated for 24 hrs by AnnexinV-FITC/PI staining based flow cytometry (reference value: 0.45%); type: functional
[24] = Toxicity in BALB/c mouse xenografted with human MV4-11 cells assessed as change in body weight at 15 mg/kg, iv BID for 21 days; type: organism-based; conditions: in vivo, 504 h, time 21 day
[25] = test system: MV4-11; assay: Induction of apoptosis in human MV4-11 cells assessed as early apoptotic cells at 10 nM incubated for 24 hrs by AnnexinV-FITC/PI staining based flow cytometry (reference value: 3.09%); type: functional
[26] = Induction of apoptosis in mouse HCD-57 cells at 100 nM incubated for 24 hrs by AnnexinV-FITC/PI staining based flow cytometry; type: toxicity, cell-based; conditions: hcd-57, 24 h, 0.1 µM
[27] = test system: MKN-45; assay: Antiproliferative activity against human MKN-45 cells assessed as reduction in cell viability measured after 72 hrs by CellTiterGlo luminescent assay; type: functional, cell-based; conditions: MKN-45, 72 h
[28] = test system: Receptor-type tyrosine-protein kinase FLT3 (Homo sapiens), P36888 [UNDEFINED MUTATION]; type: cell-based; conditions: BaF3, dose 0.1-100 nM, time 4.0 hrs; remark: listed apart in the source
[29] = Toxicity in BALB/c mouse xenografted with human MV4-11 cells assessed as neutrophil count at 15 mg/kg, iv for 21 days; type: organism-based; conditions: in vivo, 504 h, time 21 day
[30] = MRT (0 to t) in Sprague-Dawley rat at 10 mg/kg, po measured for 24 hrs by LC-MS/MS analysis; type: ADME, organism-based; conditions: in vivo
[31] = Half-life in Sprague-Dawley rat at 1 mg/kg, iv measured for 24 hrs by LC-MS/MS analysis; type: ADME, organism-based; conditions: in vivo
[32] = Induction of cell cycle arrest in mouse HCD-57 cells at 100 nM incubated for 24 hrs by PI staining based flow cytometry; type: toxicity; conditions: hcd-57, 24 h, 0.1 µM
[33] = test system: Receptor-type tyrosine-protein kinase FLT3 (Homo sapiens), P36888 [UNDEFINED MUTATION]; assay: Inhibition of FLT3-ITD-F691L mutant (unknown origin) transformed in mouse BaF3 cells assessed as inhibition of ERK phosphorylation at Thr202/Tyr204 residue incubated for 4 hrs by western blot analysis; type: cell-based; conditions: dose 0.1-100 nM
[34] = Toxicity in BALB/c mouse xenografted with human MV4-11 cells assessed as morphological changes in liver at 15 mg/kg, iv for 21 days by H and E staining based analysis; type: organism-based; conditions: in vivo, 504 h, time 21 day
[35] = Oral bioavailability in Sprague-Dawley rat at 10 mg/kg measured for 24 hrs by LC-MS/MS analysis; type: ADME, organism-based; conditions: in vivo

Chain of Receptor-type tyrosine-protein kinase FLT3 (Homo sapiens), P36888 [UNDEFINED MUTATION] (P36888 whole entry, looked up, stated change not applied): as the sequence (P36888 whole entry) above

CCN1CCN(c2ccc(C(=O)Nc3cc(-c4ccc5ncn(Cc6c(Cl)cccc6Cl)c5c4)[nH]n3)cc2)CC1
inhibition [1]: Dose-Dependent Effect
inhibition in vivo at 15 mg/kg [2]: 108%
IC50 [3]: 0.00293 µM
Activity [4]: 1.3%
Activity [5]: Non-Toxic
inhibition [6]: Dose-Dependent Effect
IC50 [7]: > 5 µM
viability at 0.05 µM [8]: 61.5%
Activity [9]: Active
viability at 0.1 µM [10]: 59.7%
Activity [11]: 24.5%
inhibition [12]: Dose-Dependent Effect
Activity [13]: Non-Toxic
Activity [14]: Active
Activity [15]: 0.61%
inhibition [16]: 100%
Activity [17]: Active
Activity [18]: 26.3%
IC50 [19]: > 10 µM
viability at 0.01 µM [20]: 67.9%
Activity [21]: 20.5%
IC50 [22]: < 0.0015 µM
Activity [23]: 0.87%
Activity [24]: Non-Toxic
Activity [25]: 10.4%
Activity [26]: Non-Toxic
IC50 [27]: 4.03 µM
inhibition [28]: Dose-Dependent Effect
Activity [29]: Non-Toxic
MRT last at 24 h [30]: 3.63 h
half-life [31]: 2.25 h
Activity [32]: Non-Toxic
inhibition [33]: Dose-Dependent Effect
Activity [34]: Non-Toxic
bioavailability [35]: 1.3%
